Measurements taken from PMC3947597 (Bioorganic & medicinal chemistry, 2013).

System: tubulin (colchicine site)
Experiment: Inhibition of [3H]colchicine binding to tubulin
Settings: 1.0 µM tubulin, 5.0 µM [3H]colchicine, 10 min at 37 °C

For COc1ccc(/C=C\c2cc(OC)c(OC)c(OC)c2)cc1O [CA4, combretastatin A-4], the “Inhibition of colchicine binding (%) ±SD, 1 µM” value (inhibitor 1 µM) was 88±2% and the “Inhibition of colchicine binding (%) ±SD, 5 µM” value (inhibitor 5 µM) was 98±0.5%.
